Paper PMC10327353 (Breast Cancer Research : BCR, 2023)

How the values were obtained:
P-gp-BCRP = P-gp-BCRP efflux ratio, cellular transport assay; format: in vitro ADME, human
Experimental: A discussion of the structure–activity relationship (SAR) cumulated in the design of DZD1516 (Fig. 1) is as follows. The HER2 inhibitory potency screening for SAR development was performed using HER2 and EGFR enzymatic assays. The cellular activity was evaluated in HER2+ cell line BT474C1 by measuring pHER2 and antiproliferation activities. Cellular transport assays measuring the permeability and efflux ratio of compounds in cells expressing human P-gp (MDR1) and BCRP were used to provide essential information for assessing their BBB penetration potential.

EGFR(h) = biological target: T1, EGFR(h) (Homo sapiens, UniProt P00533); assay: Kinase panel assay (Eurofins); format: biochemical
T1 construct: purchased Eurofins UK Ltd (Dundee, UK)
Experimental: (§1) In vitro profiling of the 121-recombinant kinase panel was performed at Eurofins UK Ltd (Dundee, UK). In brief, recombinant kinases were incubated within an appropriate buffer containing peptide substrate and radiolabelled γ-^33P-ATP together with the presence or absence of the required compound concentration. The reaction was initiated by adding ATP/Mg^2+ mix. After incubation for 40 minutes at room temperature, the reaction was stopped by adding 3% phosphoric acid solution. A portion of the reaction mix was spotted onto P30 filtermat to trap peptide and washed three times for 5 minutes with phosphoric acid to remove non-specific γ-^33P-ATP. The substrate phosphorylation was then measured by scintillation counting, which determined the level of kinase activity inhibition compared to control reactions. Percentage inhibition data for each kinase was mapped to the kinome tree (www.kinhub.org).

Met(h) = biological target: T2, Met(h) (Homo sapiens, UniProt P08581); assay: Kinase panel assay (Eurofins); format: biochemical
T2 construct: purchased Eurofins UK Ltd (Dundee, UK)
Experimental: as §1

TrkA(h) = biological target: T3, TrkA(h) (Homo sapiens, UniProt P04629); assay: Kinase panel assay (Eurofins); format: biochemical
T3 construct: purchased Eurofins UK Ltd (Dundee, UK)
Experimental: as §1

Lck(h) = biological target: T4, Lck(h) (Homo sapiens, UniProt P06239); assay: Kinase panel assay (Eurofins); format: biochemical
T4 construct: purchased Eurofins UK Ltd (Dundee, UK)
Experimental: as §1

HER2(h) = biological target: T5, HER2(h) (Homo sapiens, UniProt P04626); assay: Kinase panel assay (Eurofins); format: biochemical
T5 construct: purchased Eurofins UK Ltd (Dundee, UK)
Experimental: as §1

EGFR(T790M,L858R)(h) = biological target: T6, EGFR(T790M,L858R)(h) (Homo sapiens, UniProt P00533, L858R/T790M); assay: Kinase panel assay (Eurofins); format: biochemical
T6 construct: purchased Eurofins UK Ltd (Dundee, UK)
Experimental: as §1

Fms(h) = biological target: T7, Fms(h) (Homo sapiens, UniProt P07333); assay: Kinase panel assay (Eurofins); format: biochemical
T7 construct: purchased Eurofins UK Ltd (Dundee, UK)
Experimental: as §1

Blk(h) = biological target: T8, Blk(h) (Homo sapiens, UniProt P51451); assay: Kinase panel assay (Eurofins); format: biochemical
T8 construct: purchased Eurofins UK Ltd (Dundee, UK)
Experimental: as §1

ErbB4(h) = biological target: T9, ErbB4(h) (Homo sapiens, UniProt Q15303); assay: Kinase panel assay (Eurofins); format: biochemical
T9 construct: purchased Eurofins UK Ltd (Dundee, UK)
Experimental: as §1

Lck(h) activated = biological target: T10, Lck(h) activated (Homo sapiens, UniProt P06239); assay: Kinase panel assay (Eurofins); format: biochemical
T10 construct: purchased Eurofins UK Ltd (Dundee, UK)
Experimental: as §1

c-RAF(h) = biological target: T11, c-RAF(h) (Homo sapiens, UniProt P04049); assay: Kinase panel assay (Eurofins); format: biochemical
T11 construct: purchased Eurofins UK Ltd (Dundee, UK)
Experimental: as §1

Lyn(h) = biological target: T12, Lyn(h) (Homo sapiens, UniProt P07948); assay: Kinase panel assay (Eurofins); format: biochemical
T12 construct: purchased Eurofins UK Ltd (Dundee, UK)
Experimental: as §1

T4 sequence (P06239 whole entry): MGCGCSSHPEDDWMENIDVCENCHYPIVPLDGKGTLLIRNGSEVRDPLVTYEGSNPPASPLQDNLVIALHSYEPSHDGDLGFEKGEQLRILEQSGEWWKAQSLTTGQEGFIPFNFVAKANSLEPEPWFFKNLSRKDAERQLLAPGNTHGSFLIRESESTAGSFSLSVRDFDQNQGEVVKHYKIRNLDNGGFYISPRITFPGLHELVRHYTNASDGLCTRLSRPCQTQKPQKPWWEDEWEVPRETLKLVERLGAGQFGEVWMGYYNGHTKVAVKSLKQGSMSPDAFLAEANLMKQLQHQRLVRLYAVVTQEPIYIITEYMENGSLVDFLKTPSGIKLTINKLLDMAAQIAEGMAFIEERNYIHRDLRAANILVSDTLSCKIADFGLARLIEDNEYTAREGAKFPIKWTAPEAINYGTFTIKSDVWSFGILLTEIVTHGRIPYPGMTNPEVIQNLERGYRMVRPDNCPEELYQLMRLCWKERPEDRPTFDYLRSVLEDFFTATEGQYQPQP
T10 sequence (P06239 whole entry): as above
T8 sequence (P51451 whole entry): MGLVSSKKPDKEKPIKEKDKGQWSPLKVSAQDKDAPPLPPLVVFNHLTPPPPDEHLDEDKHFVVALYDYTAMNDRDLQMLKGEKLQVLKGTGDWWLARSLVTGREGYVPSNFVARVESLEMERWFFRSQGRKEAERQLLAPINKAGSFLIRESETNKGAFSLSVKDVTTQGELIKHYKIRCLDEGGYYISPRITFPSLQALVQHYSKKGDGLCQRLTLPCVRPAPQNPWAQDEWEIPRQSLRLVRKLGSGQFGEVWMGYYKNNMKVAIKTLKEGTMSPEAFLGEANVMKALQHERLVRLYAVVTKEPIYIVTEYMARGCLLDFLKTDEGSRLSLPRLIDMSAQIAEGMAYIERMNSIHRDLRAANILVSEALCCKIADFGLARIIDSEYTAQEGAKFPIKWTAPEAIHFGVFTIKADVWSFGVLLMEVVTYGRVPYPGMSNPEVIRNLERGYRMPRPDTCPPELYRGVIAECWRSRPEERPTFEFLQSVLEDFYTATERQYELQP
T6 sequence (P00533 25-1210 T790M/L858R): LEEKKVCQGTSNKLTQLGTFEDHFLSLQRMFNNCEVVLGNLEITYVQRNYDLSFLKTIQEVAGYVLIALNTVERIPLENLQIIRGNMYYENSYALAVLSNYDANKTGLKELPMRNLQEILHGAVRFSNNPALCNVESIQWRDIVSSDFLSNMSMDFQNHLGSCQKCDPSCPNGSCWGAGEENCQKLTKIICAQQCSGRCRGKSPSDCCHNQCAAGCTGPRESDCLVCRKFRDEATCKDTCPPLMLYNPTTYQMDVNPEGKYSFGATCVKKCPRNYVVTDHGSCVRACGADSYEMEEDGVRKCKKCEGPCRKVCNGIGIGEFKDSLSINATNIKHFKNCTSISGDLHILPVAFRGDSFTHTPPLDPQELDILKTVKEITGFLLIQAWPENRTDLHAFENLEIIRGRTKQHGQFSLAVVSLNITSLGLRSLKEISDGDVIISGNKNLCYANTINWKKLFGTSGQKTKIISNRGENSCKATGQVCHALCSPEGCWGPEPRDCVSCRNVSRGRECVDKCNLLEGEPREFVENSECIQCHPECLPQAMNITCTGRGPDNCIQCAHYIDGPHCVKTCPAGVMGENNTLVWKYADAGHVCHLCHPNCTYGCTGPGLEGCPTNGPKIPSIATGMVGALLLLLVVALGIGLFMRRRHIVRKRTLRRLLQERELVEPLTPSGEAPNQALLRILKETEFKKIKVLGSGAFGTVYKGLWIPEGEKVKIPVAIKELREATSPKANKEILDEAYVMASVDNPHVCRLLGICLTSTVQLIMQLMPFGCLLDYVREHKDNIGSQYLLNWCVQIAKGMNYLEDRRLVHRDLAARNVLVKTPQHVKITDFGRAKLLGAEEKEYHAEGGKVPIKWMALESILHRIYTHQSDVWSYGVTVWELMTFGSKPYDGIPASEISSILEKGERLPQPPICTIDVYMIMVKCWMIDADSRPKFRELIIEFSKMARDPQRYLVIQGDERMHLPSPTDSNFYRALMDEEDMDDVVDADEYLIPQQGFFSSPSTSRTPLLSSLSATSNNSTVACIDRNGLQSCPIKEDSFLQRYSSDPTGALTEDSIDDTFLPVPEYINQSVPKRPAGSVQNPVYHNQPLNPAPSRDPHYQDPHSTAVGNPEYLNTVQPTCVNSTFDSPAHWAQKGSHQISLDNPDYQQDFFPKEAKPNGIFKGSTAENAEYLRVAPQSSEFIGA
T5 sequence (P04626 23-1255): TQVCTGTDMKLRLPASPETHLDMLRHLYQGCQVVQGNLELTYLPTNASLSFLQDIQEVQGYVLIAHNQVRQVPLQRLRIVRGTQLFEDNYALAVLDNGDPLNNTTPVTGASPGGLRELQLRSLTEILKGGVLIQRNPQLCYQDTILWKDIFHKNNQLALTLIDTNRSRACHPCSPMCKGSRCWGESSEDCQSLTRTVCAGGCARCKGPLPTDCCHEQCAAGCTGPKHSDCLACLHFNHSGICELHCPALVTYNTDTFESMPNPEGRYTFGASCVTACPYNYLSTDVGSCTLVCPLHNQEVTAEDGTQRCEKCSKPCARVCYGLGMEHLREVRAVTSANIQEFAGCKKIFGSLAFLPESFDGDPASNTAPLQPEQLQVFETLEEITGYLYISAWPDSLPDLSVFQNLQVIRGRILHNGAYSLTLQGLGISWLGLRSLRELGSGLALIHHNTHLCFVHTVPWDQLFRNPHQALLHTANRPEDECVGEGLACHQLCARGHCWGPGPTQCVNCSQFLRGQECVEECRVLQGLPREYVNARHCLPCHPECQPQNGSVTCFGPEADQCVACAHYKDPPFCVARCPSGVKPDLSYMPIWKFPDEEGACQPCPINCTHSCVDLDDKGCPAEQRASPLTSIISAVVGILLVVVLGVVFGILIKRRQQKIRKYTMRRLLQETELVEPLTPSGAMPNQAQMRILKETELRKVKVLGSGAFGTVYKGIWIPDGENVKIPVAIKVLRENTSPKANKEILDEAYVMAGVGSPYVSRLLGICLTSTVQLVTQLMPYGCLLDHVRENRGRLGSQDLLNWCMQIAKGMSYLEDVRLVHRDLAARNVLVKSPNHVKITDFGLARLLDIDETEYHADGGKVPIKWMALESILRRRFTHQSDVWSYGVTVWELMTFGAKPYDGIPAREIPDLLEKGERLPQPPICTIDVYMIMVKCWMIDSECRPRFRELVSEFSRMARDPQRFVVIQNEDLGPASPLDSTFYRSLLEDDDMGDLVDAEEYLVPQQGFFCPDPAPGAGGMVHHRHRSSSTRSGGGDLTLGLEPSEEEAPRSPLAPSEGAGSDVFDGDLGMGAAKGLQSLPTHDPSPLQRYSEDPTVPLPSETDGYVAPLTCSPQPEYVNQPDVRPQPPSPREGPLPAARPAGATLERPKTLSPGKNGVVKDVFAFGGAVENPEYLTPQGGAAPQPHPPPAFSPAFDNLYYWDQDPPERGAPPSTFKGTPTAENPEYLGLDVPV
T12 sequence (P07948 whole entry): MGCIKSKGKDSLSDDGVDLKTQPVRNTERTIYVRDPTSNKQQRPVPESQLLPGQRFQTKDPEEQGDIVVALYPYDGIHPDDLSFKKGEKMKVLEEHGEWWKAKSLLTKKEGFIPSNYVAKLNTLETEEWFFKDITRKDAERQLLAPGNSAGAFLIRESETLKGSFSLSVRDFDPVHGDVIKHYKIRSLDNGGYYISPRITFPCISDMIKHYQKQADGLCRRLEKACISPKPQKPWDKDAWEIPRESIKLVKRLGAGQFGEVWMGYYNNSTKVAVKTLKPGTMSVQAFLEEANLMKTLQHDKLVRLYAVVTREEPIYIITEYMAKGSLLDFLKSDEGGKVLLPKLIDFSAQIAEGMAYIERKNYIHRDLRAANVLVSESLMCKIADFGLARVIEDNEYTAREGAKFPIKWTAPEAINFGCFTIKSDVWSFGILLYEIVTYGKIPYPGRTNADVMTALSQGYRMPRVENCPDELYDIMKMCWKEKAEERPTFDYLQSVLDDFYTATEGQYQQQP
T7 sequence (P07333 20-972): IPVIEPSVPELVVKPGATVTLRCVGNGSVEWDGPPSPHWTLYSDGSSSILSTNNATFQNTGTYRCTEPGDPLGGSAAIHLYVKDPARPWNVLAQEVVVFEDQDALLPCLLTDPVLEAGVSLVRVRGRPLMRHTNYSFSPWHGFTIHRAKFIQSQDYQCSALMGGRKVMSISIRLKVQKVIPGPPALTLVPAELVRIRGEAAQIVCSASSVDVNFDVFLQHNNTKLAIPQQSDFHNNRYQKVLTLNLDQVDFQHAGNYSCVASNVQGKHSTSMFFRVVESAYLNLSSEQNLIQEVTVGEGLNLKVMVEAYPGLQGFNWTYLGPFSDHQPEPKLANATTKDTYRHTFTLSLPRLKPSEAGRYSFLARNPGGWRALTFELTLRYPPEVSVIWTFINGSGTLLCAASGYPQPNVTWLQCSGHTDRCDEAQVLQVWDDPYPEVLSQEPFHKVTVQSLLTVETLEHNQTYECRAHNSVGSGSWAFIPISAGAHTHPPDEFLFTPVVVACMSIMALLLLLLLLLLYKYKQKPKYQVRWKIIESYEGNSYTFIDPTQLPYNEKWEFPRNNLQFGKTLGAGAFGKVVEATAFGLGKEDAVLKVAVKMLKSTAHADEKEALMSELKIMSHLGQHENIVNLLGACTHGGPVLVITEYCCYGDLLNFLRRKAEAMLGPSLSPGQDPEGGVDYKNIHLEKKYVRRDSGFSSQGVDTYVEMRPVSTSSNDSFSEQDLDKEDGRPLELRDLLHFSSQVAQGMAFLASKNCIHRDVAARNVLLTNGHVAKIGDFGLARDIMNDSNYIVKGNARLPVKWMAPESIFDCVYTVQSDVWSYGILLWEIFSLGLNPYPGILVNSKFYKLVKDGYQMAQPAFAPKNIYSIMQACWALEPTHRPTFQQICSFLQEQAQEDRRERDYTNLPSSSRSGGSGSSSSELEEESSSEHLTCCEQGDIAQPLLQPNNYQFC

COc1cc(O[C@H]2CCN(C)CC2(F)F)c2c(Nc3ccc(Oc4ccn5ncnc5c4)c(C)c3)ncnc2c1 [DZD1516]
efflux ratio at 1 µM (P-gp-BCRP; human, not told, 1 µM): 1.8 | active efflux via P-gp and BCRP (P-gp-BCRP; in vitro): do not undergo active efflux via P-gp and BCRP in vitro | IC50 (EGFR(h)): 92 nM | IC50 (Met(h)): 1090 nM | IC50 (TrkA(h)): 1290 nM | IC50 (Lck(h)): 433 nM | IC50 (HER2(h)): 16 nM | IC50 (EGFR(T790M,L858R)(h)): 244 nM | IC50 (Fms(h)): 1070 nM | IC50 (Blk(h)): 2670 nM | IC50 (ErbB4(h)): 52 nM | IC50 (Lck(h) activated): 180 nM | IC50 (c-RAF(h)): 1040 nM | IC50 (Lyn(h)): 2300 nM
